Laboratory results reported in patent US20230277553A1, “THERAPEUTIC COMPOSITION OF CURE-PRO COMPOUNDS FOR TARGETED DEGRADATION OF BET DOMAIN PROTEINS, AND METHODS OF MAKING AND USAGE” (CORNELL UNIVERSITY, priority 2020, published 2023).
“Also recorded” adds a separate entry of the source. Values belong to the molecule of their own block, whether it stands above or below them. Residues, ends and D or L forms follow the SMILES beside them. *: point of attachment. Cbz = O=C(OCc1ccccc1)*

Experiments:
Type in all cases: cell-based
MV-4-11 cells = assay: CellTiter-Glo cell viability, MV-4-11 cells; conditions: for Loss of cellular viability / toxicity, cotreated with cereblon ligands 8046, 8047 and 8066 vs monomers alone: MV-4-11, 72 hours, 1:1, 10 nM-100 μM each
Procedure: CellTiter-Glo® 2.0 Cell Viability Assay (Promega) was carried out following the manufacturer's recommendations. Cells were seeded at a density of 1000 cells/well in a white 96 well plates (Corning, #3917) in a total volume of 100 μl with respective monomers, combinations of BRD ligands together with E3 ligase ligands or vehicle control treatment. After a 72 h incubation, 100 ul of the CellTiter-Glo® substrate was added per well and luminescence was read on a Spectramax M5 (Molecular Devices). Dose-response curves were generated using Graphpad Prism software.
MV-4-11 cells (5×104) were treated for 24 hours with the sample compounds solubilized in DMSO. The compounds were added at 1 nM-100 μM each. Cellular viability was determined using the CellTiter-Glo® Luminescent Cell Viability Assay (Promega) described above. FIGS. 19-22 depict the CURE-PRO-mediated loss of cellular viability for BRD monomers (JQ1 derivatives comprising of catechol linkers), and CRBN ligand, 8049 (pomalidomide derivatives comprising boronic acid linkers) combined in a 1:1 ratio.
MV-4-11 cells (1×104) were treated for 72 hours with the compounds solubilized in DMSO. Compounds were added at 10 nM-100 μM each. Cellular viability was determined using the CellTiter-Glo® Luminescent Cell Viability Assay (Promega) described above. FIGS. 47-54 depict the CURE-PRO-mediated loss of cellular viability for BRD monomers (JQ1 derivatives comprising of boronic acid linkers), and CRBN ligands, 8046, 8047 and 8066 (pomalidomide derivatives comprising diol linkers) combined in a 1:1 ratio.

BRD4 [1] = target: T1, BRD4 (Homo sapiens, UniProt O60885); assay: Summary of BRD4 degradation by CURE-PRO pairs, estimated from Western Blot or WES (Proteinsimple); set-up: endogenous in cells
Source text: A black check mark indicates efficacy of 30% to 70% or higher protein degradation.

BRD4 [2] = target: T1, BRD4; assay: CURE-PRO-mediated BRD4 degradation, Western blot, HeLa cells; set-up: endogenous in cells; host or cells: HeLa; conditions: 24 h, Western blot
Outline: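 HeLa cells treated 24 h with compounds in DMSO (1-10 μM, 10 μM or 100 μM each; paired monomers combined 1:1), optional 15-min pretreatment with pomalidomide, VHL298, Nutlin3a (10 μM) or MG-132/carfilzomib (1 μM). RIPA lysates, 10-20 μg protein immunoblotted for BRD4 with β-actin, ECL detection.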

BRD4 [3] = target: T1, BRD4; assay: CURE-PRO-mediated BRD4 degradation with MDM2 ligands, WES (ProteinSimple), HCT116 cells; set-up: endogenous in cells; conditions: HCT116, monomers 10 μM each, inhibitor 1 μM pre-incubation
Procedure: (§1) All cell lines were purchased from ATCC or DSMZ and grown at 37° C. with 5% CO2. Human HeLa cells were cultured in complete growth medium (Dulbecco's modified Eagle's medium (DMEM) supplemented with 10% FBS); MCF7 cells were cultured in complete growth medium (Dulbecco's modified Eagle's medium (DMEM) supplemented with 10% FBS and 0.01 mg/ml human recombinant insulin (Sigma Aldrich); Namalwa and MOLM-13 cells were cultured in complete growth medium (RPMI 1640 medium supplemented with 10% FBS); MV-4-11 were cultured in complete growth medium (Iscove's Modified Dulbecco's medium, supplemented with 10% FBS); HCT116 cells were cultured in complete growth medium (McCoy's 5a Medium supplemented with 10% FBS). For cellular degradation of BRD4 studies, cells were seeded in a 12-well plate at 70-80% confluency, allowed to attach overnight, and incubated with the indicated compounds for the indicated time. When indicated, a 15-minute pretreatment with 10 μM pomalidomide, 10 μM VHL298, 10 μM Nutlin3a, 1 μM MG-132 or 1 μM Carfilzomib was performed before the addition of CURE-PROs. For washout studies, after CURE-PRO treatment, media was aspirated and incubated with complete medium for the indicated time before lysis.
(§2) WES Simple analysis was performed on WES system (ProteinSimple-Biotechne) according to the manufacturer's instructions. Total protein concentrations of cell lysates were determined by the Pierce BCA kit (Thermo Fisher). 3 μL of 0.3 μg/μL of the protein lysate was loaded onto a 12- to 230-kDa WES assay plate (ProteinSimple) where 300 nL sample was withdrawn through a capillary, subjected to electrophoretic separation of proteins by size, and followed by the simultaneous, HRP-based detection of proteins using the Anti-Rabbit Detection Module (Proteinsimple: #DM-001). The electropherograms were checked then the automatic peak detection was manually corrected if it was required.
(§3) HCT116 cells (3×10^6) were treated for 24 hours with the compounds solubilized in DMSO. Compounds were added at 1 μM-10 μM each. Standardized protein samples were electrophoresed and imaged as described in the WES ProteinSimple section above. FIGS. 59, 60, and 61 depict the concentration-dependence of CURE-PRO-mediated BRD4 degradation using MDM2 ligands.
as §3, with “62” for “59, 60,”, “63” for “61”
(§4) HCT116 cells (3×10^6) were treated for 24 hours with the compounds solubilized in DMSO. CURE-PRO monomers were added at 10 μM each and the proteasomal inhibitors at 1 μM. Standardized protein samples were electrophoresed and imaged as described in the WES ProteinSimple section above. FIG. 68 depicts the dependence of the proteasome for CURE-PRO-mediated BRD4 degradation.

BRD4 [4] = target: T1, BRD4; assay: CURE-PRO-mediated BRD4 degradation with VHL ligands, WES (ProteinSimple), MCF7 cells; set-up: endogenous in cells; conditions: for Inhibition of BRD-E2 + 8305 mediated BRD4 degradation by proteasome inhibitor / Inhibition of BRD-E20 + 8305 mediated BRD4 degradation by proteasome inhibitor: MCF7, monomers 10 μM each, inhibitor 1 μM pre-incubation
Procedure: as §1, §2
MCF7 cells (3×10^6) were treated for 4-24 hours continually (FIG. 72), or treated for 4h, washed and incubated for a further 4-24 h with the compounds solubilized in DMSO. Compounds were added at 10 μM each. Cells were washed, lysed, and clarified by centrifugation. The total protein concentration was quantified by the BCA method (ThermoFisher Sciences). Standardized protein samples were electrophoresed and imaged as described in the WES Proteinsimple section above. FIG. 69 depicts the CURE-PRO-mediated BRD4 degradation for the BRD-E50 monomer, and VHL ligand, 8305.
as §4, with “MCF7” for “HCT116”, “Proteinsimple” for “ProteinSimple”, “FIGS. 73 and 75” for “FIG. 68”
MCF7 cells (3×10^6) were treated for 24 hours with the compounds solubilized in DMSO. CURE-PRO monomers were added at 10 μM. FIG. 74 depicts the CURE-PRO-mediated BRD4 degradation for the BRD-E50 monomer, and VHL ligand, 8305 combined in a 1:1 ratio after 24 h.

SMILES: COc1ccc2c(c1)C(c1ccc(Cl)cc1)=N[C@@H](CC(=O)NCCCCCNC(=O)c1cccc(O)c1O)c1nnc(C)n1-2 [BRD-N8, N-(5-(2-((4S)-6-(4-chlorophenyl)-8-methoxy-1-methyl-4H-benzo[f][1,2,4]triazolo[4,3-a][1,4]diazepin-4-yl)acetamido)pentyl)-2,3-dihydroxybenzamide]
Loss of cellular viability / toxicity, co-dosed with CRBN ligand 8049 (MV-4-11 cells; MV-4-11, 24 hours, 1:1 with 8049, 1 nM-100 μM each): concentration-dependent loss in cellular viability; also recorded: increased toxicity

SMILES: COc1ccc2c(c1)C(c1ccc(Cl)cc1)=N[C@@H](CC(=O)NCCNC(=O)/C=C/c1ccc(B(O)O)cc1)c1nnc(C)n1-2 [BRD-E29, (4-((E)-3-((2-(2-((4S)-6-(4-chlorophenyl)-8-methoxy-1-methyl-4H-benzo[f][1,2,4]triazolo[4,3-a][1,4]diazepin-4-yl)acetamido)ethyl)amino)-3-oxoprop-1-en-1-yl)phenyl)boronic acid]
Loss of cellular viability / toxicity, cotreated with cereblon ligands 8046, 8047 and 8066 vs monomers alone (MV-4-11 cells): reduced viability; also recorded: increased toxicity
Degradation of BRD4 in combination with CRBN ligand [drawing 371] (BRD4 [1]; Table 1, CRBN ligand, second drawing (8047)): ✓ (A black check mark indicates efficacy of 30% to 70% or higher protein degradation)
Degradation of BRD4 in combination with CRBN ligand [drawing 372] (BRD4 [1]; Table 1, CRBN ligand, third drawing (8066)): ✓ (A black check mark indicates efficacy of 30% to 70% or higher protein degradation)
Degradation of BRD4 in combination with CRBN ligand [drawing 370] (BRD4 [1]; Table 1, aromatic 1,2-diol- or hindered cis-1,2-diol-containing CRBN ligand, first drawing (8046)): ✓ (A black check mark indicates efficacy of 30% to 70% or higher protein degradation)
BRD4 degradation, co-treatment with CRBN ligand 8046 (BRD4 [2]; 1:1 with 8046, 10 μM each): causes degradation of BRD4; also recorded: Degradation is noted
BRD4 degradation, co-treatment with CRBN ligand 8047 (BRD4 [2]; 1:1 with 8047, 10 μM each): causes degradation of BRD4; also recorded: Degradation is noted
BRD4 degradation, co-treatment with CRBN ligand 8066 (BRD4 [2]; 1:1 with 8066, 10 μM each (BRD-E10: 10 and 100 μM)): causes degradation of BRD4; also recorded: Degradation is noted

Inhibition of BRD-N25 + 8310 mediated BRD4 degradation by proteasome inhibitor (BRD4 [3]): inhibited by the pre-incubation
Inhibition of BRD-E2 + 8305 mediated BRD4 degradation by proteasome inhibitor (BRD4 [4]): inhibited by the pre-incubation
Inhibition of BRD-E20 + 8305 mediated BRD4 degradation by proteasome inhibitor (BRD4 [4]): inhibited by the pre-incubation
SMILES: CC(C)C[C@H](NC(=O)[C@H](CCc1ccccc1)NC(=O)CN1CCOCC1)C(=O)N[C@@H](Cc1ccccc1)C(=O)N[C@@H](CC(C)C)C(=O)[C@@]1(C)CO1 [Carfilzomib]

SMILES: O=C1CCC(N2C(=O)c3cccc(CNC(=O)c4cccc(B(O)O)c4)c3C2=O)C(=O)N1 (stereo not drawn) [compound 8049]
Loss of cellular viability, monomer alone (MV-4-11 cells; MV-4-11, 24 hours, 1 nM-100 μM): little loss of viability was observed

SMILES: Cc1ncsc1-c1ccc(CNC(=O)[C@@H]2C[C@@H](O)CN2C(=O)[C@@H](NC(=O)C2(C#N)CC2)C(C)(C)C)cc1 [VHL298]
Inhibition of BRD-E50 + 8305 mediated BRD4 degradation by preincubation (BRD4 [4]; MCF7, equimolar final concentrations (10 μM)): attenuates CURE-PRO mediated BRD4 degradation; also recorded: inhibited CURE-PRO mediated degradation; also recorded: inhibits the degradation of BRD4

SMILES: CC(C)C[C@@H](C=O)NC(=O)[C@H](CC(C)C)NC(=O)[C@H](CC(C)C)NC(=O)OCc1ccccc1 [MG-132] (Cbz-Leu-Leu-Leu-aldehyde)
Inhibition of BRD-N25 + 8310 mediated BRD4 degradation by proteasome inhibitor (BRD4 [3]): inhibited by the pre-incubation
Inhibition of BRD-E2 + 8305 mediated BRD4 degradation by proteasome inhibitor (BRD4 [4]): inhibited by the pre-incubation
Inhibition of BRD-E20 + 8305 mediated BRD4 degradation by proteasome inhibitor (BRD4 [4]): inhibited by the pre-incubation

SMILES: COc1ccc2c(c1)C(c1ccc(Cl)cc1)=N[C@@H](CC(=O)Nc1cccc(B(O)O)c1)c1nnc(C)n1-2 [BRD-E73, (3-(2-((4S)-6-(4-chlorophenyl)-8-methoxy-1-methyl-4H-benzo[f][1,2,4]triazolo[4,3-a][1,4]diazepin-4-yl)acetamido)phenyl)boronic acid]
Loss of cellular viability / toxicity, cotreated with cereblon ligands 8046, 8047 and 8066 vs monomers alone (MV-4-11 cells): reduced viability; also recorded: increased toxicity

SMILES: CCNC(=O)C[C@@H]1N=C(c2ccc(Cl)cc2)c2cc(OCCCCCCCNC(=O)c3ccc(B(O)O)cc3)ccc2-n2c(C)nnc21 [BRD-E78]
Loss of cellular viability / toxicity, cotreated with cereblon ligands 8046, 8047 and 8066 vs monomers alone (MV-4-11 cells): reduced viability; also recorded: increased toxicity
Degradation of BRD4 in combination with VHL ligand [drawing 397] (BRD4 [1]; Table 3, aromatic 1,2-diol-containing VHL ligand, second drawing (8305)): ✓ (A black check mark indicates efficacy of 30% to 70% or higher protein degradation)

BRD4 degradation, monomer alone (WES) (BRD4 [4]; MCF7, 10 μM): no degradation of BRD4
SMILES: Cc1ncsc1-c1ccc(CNC(=O)[C@@H]2C[C@@H](O)CN2C(=O)[C@@H](NC(=O)c2cccc(O)c2O)C(C)(C)C)cc1 [compound 8305, (2S,4R)-1-((S)-2-(2,3-dihydroxybenzamido)-3,3-dimethylbutanoyl)-4-hydroxy-N-(4-(4-methylthiazol-5-yl)benzyl)pyrrolidine-2-carboxamide]

SMILES: CCNC(=O)C[C@@H]1N=C(c2ccc(Cl)cc2)c2cc(Sc3ccc(B(O)O)cc3)ccc2-n2c(C)nnc21 [BRD-E75, (4-(((4S)-6-(4-chlorophenyl)-4-(2-(ethylamino)-2-oxoethyl)-1-methyl-4H-benzo[f][1,2,4]triazolo[4,3-a][1,4]diazepin-8-yl)thio)phenyl)boronic acid]
Loss of cellular viability / toxicity, cotreated with cereblon ligands 8046, 8047 and 8066 vs monomers alone (MV-4-11 cells): reduced viability; also recorded: increased toxicity
